From patent US20240101576A1, “HETEROCYCLIC INHIBITORS OF EGFR AND/OR HER2, FOR USE IN THE TREATMENT OF CANCER” (Scorpion Therapeutics, Inc., priority 2020, published 2024)

Assays:
Assay type in all cases: cell-based
EGFR (CUTO14 cells) = EGFR (CUTO14 cells) (Homo sapiens, UniProt P00533); assay: Inhibitor activity on EGFR phosphorylation (pEGFR AlphaLISA, 2 h), CUTO14 cells
Excerpt: Example B. Inhibitor Activity on EGFR phosphorylation (pEGFR)
EGFR mutant Ba/F3 cells were generated by transduction with retrovirus containing vectors expressing EGFR L858R, EGFR exon 19del, EGFR L858R/C797S, EGFR exon 20 NPG Ins D770_N771, EGFR exon 20 ASV Ins V769_D770, or EGFR exon 20 SVD Ins D770_N771 genes along with a puromycin selection marker. Transduced cells are selected with puromycin for 7 days and are then be transferred into culture media without Interleukin 3 (IL3). Surviving cells are confirmed to express EGFR by Western blot and maintained as a pool. CUTO14 cells were obtained from Dr. Robert C. Doebele at the University of Colorado. The IC50 date are included in Table 6 and Table 7.
(§1) 1.1 Cells are harvested from flask into cell culture medium and the cell number counted.
1.2 Cells are diluted with culture medium to the desired density and 40 μL of cell suspension is added into each well of 384-well cell culture plate and the seeding density is 50K cells/well (Ba/F3) or 12.5K cells/well (CUTO14).
(§2) 2 Compound Preparation and Treatment
(§3) 2.1 Test compounds are dissolved to 10 mM in a DMSO stock solution. 45 μL of stock solution is transferred to a 384 polypropylene plate (pp-plate). Perform 3-fold, 10-point dilution via transferring 15 μL compound into 30 μL DMSO using a TECAN (EVO200) liquid handler.
(§4) 2.2 Spin plates at room temperature at 1,000 RPM for 1 minute.
2.3 Transfer 5 nL of diluted compound from compound source plate into the cell plate.
2.4 After compound treatment for 2 hours, perform pEGFR detection by AlphaLISA for compound treatment plates as described in “Detection” section.
3 Detection by pEGFR AlphaLISA (Perkin-Elmer)
3.1 Plates are removed from incubators and equilibrated at room temperature for 10 minutes, and media was removed
3.2 10 μL of lysis buffer is added and plates shaken at 600 rpm for 1 hr.
3.3 Prepare acceptor mix just before use and dispense 5 μL of acceptor mix to all the wells. Shake 350 rpm for Ihr in the dark
3.4 Prepare donor mix under low light conditions prior to use. Dispense 5 μL of donor mix to all the wells. Mix well on the shaker, seal and wrap in aluminum foil and incubate 1.5 hrs at room temperature in the dark
3.5 Transfer 18.5 μL mixture to OptiPlate 384, and read using an Envision. The IC50 date were included in Table 6 and Table 7.

[1] = target: T1, EGFR exon 20 NPG Ins D770_N771 (Ba/F3 cells) (Homo sapiens, UniProt P00533, INS770NPG); assay: Inhibitor activity on EGFR-dependent cell growth (CellTiter-Glo, 72 h), Ba/F3 EGFR exon 20 NPG Ins; conditions: read-out: BaF3 NPG IC50
T1 construct: expressed in transfected cells; host or cells: Ba/F3 (murine pro-B cells), retroviral transduction, puromycin selection, IL3-independent pool
T1 sequence (P00533 with tags, fused parts or gaps INS770NPG): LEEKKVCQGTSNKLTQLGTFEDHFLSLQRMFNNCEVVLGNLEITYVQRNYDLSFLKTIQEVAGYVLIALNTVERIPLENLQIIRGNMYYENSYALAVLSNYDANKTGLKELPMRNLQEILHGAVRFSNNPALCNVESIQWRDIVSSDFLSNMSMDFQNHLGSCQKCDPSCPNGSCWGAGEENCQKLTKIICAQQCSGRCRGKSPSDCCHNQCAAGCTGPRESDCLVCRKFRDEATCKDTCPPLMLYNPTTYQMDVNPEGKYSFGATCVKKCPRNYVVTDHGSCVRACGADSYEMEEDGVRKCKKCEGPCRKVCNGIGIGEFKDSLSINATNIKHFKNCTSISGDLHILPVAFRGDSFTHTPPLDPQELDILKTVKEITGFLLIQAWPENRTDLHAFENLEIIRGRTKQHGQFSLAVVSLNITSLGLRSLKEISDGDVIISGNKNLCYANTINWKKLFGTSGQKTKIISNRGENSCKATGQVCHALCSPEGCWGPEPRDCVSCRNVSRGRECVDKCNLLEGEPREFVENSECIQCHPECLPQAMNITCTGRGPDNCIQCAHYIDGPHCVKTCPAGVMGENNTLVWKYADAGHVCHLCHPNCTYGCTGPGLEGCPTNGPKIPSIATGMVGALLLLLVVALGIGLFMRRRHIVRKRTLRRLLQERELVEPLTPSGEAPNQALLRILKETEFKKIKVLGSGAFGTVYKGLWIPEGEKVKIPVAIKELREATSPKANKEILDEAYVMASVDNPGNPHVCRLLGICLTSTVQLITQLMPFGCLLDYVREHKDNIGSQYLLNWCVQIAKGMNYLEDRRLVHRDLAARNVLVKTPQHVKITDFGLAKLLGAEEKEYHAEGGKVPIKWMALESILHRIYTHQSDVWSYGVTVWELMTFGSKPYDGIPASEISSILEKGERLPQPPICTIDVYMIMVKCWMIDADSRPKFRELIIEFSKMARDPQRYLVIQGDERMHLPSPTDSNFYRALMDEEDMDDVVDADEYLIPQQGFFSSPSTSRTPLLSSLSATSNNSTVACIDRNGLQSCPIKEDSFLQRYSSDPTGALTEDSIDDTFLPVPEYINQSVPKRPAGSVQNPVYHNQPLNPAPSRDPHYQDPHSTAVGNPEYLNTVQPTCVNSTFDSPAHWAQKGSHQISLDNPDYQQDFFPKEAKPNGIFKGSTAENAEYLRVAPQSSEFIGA
How it was run: (§5)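 IC50s derive from a sigmoidal dose–response fit of CellTiter-Glo signal. The signal was normalised between […]-treated cells and cell-free medium. Ba/F3 mutant-EGFR cells, seeded at 400–800/well depending on the line, had 72 h of exposure to a 10-point, 3-fold compound series.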

[2] = target: T2, EGFR exon 20 SVD Ins D770_N771 (Ba/F3 cells) (Homo sapiens, UniProt P00533, INS770SVD); assay: Inhibitor activity on EGFR-dependent cell growth (CellTiter-Glo, 72 h), Ba/F3 EGFR exon 20 SVD Ins; conditions: read-out: BaF3 SVD IC50
T2 construct: expressed in transfected cells; host or cells: Ba/F3 (murine pro-B cells), retroviral transduction, puromycin selection, IL3-independent pool
T2 sequence (P00533 with tags, fused parts or gaps INS770SVD): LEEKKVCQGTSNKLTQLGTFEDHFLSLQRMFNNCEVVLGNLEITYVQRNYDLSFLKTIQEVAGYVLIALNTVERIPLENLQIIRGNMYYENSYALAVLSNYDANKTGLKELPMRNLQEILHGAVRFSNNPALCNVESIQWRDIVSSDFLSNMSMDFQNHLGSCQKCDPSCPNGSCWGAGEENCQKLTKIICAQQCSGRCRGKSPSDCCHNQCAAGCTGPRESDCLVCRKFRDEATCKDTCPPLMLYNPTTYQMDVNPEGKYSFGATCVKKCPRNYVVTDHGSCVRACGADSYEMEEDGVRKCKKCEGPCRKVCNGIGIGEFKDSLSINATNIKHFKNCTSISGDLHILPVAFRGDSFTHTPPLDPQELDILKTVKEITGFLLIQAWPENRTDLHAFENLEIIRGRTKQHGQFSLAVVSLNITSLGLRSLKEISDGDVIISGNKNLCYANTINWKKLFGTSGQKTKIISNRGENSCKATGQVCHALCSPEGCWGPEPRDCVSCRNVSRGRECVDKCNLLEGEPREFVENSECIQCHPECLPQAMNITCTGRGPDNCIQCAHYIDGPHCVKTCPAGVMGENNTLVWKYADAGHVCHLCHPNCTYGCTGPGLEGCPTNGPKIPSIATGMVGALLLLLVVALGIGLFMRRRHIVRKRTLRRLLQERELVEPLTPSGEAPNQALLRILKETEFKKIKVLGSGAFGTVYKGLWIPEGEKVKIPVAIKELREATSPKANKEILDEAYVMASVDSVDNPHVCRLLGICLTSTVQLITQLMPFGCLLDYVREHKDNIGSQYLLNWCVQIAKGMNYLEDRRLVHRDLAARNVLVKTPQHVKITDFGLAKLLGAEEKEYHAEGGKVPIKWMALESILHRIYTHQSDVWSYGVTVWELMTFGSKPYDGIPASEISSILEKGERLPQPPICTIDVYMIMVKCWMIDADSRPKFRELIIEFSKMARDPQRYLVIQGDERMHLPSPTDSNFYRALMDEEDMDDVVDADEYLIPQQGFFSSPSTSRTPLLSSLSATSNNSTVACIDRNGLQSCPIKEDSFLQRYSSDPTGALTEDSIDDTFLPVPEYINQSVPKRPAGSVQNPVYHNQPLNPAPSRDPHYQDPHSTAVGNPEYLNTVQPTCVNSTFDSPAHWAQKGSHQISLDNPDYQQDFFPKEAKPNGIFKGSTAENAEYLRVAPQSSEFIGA
How it was run: as §5

[3] = target: T3, EGFR exon 20 ASV Ins V769_D770 (Ba/F3 cells) (Homo sapiens, UniProt P00533, INS769ASV); assay: Inhibitor activity on EGFR-dependent cell growth (CellTiter-Glo, 72 h), Ba/F3 EGFR exon 20 ASV Ins; conditions: read-out: BaF3 ASV IC50
T3 construct: expressed in transfected cells; host or cells: Ba/F3 (murine pro-B cells), retroviral transduction, puromycin selection, IL3-independent pool
T3 sequence (P00533 with tags, fused parts or gaps INS769ASV): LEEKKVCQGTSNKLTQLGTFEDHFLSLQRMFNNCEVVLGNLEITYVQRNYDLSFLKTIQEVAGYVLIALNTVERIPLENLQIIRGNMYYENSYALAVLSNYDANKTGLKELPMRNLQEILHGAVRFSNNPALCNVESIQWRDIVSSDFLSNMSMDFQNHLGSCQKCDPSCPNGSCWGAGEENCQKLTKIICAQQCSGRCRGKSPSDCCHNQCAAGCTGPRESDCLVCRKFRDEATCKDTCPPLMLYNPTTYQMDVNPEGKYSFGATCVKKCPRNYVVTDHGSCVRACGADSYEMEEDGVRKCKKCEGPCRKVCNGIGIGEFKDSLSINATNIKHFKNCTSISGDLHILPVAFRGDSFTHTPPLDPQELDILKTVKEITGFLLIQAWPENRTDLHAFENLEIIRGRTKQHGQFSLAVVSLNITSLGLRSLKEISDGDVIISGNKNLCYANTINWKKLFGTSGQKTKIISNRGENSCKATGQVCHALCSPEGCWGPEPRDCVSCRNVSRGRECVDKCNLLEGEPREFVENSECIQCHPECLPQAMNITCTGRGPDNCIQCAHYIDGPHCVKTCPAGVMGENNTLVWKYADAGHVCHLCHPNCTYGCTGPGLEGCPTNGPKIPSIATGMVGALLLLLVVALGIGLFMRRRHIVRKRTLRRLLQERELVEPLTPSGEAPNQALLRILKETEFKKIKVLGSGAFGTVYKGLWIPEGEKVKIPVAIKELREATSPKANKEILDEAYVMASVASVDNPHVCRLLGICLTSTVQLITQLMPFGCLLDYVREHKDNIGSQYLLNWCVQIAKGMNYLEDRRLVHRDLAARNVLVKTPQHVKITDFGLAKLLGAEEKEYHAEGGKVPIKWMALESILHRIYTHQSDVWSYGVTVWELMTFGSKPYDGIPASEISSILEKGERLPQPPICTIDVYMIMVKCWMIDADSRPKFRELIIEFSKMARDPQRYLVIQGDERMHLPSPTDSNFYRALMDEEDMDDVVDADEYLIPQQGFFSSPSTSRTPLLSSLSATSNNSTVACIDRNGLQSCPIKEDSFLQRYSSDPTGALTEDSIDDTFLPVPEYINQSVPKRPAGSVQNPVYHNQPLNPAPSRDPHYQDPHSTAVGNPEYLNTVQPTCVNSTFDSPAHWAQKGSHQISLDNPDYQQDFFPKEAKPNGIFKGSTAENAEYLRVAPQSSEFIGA
How it was run: as §5

EGFR WT (Ba/F3 cells) = target: T4, EGFR WT (Ba/F3 cells) (Homo sapiens, UniProt P00533); assay: Inhibitor activity on EGFR-dependent cell growth (CellTiter-Glo, 72 h), Ba/F3 EGFR WT; conditions: read-out: BaF3 WT IC50
T4 construct: expressed in transfected cells; host or cells: Ba/F3 (murine pro-B cells), retroviral transduction, puromycin selection, maintained with EGF
How it was run: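 This growth assay used Ba/F3 cells that depend on wild-type EGFR and are kept in EGF without IL3. Compounds were made up as 10 mM DMSO stocks and diluted 3-fold over 10 points. 120 nL went onto 600 cells/well. After 72 hours, 40 μL CellTiter-Glo was added and luminescence read on EnVision after 30 min.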

[4] = target: T5, EGFR exon 20 FQEA Ins A763_V764 (Ba/F3 cells) (Homo sapiens, UniProt P00533, INS763FQEA); assay: Inhibitor activity on EGFR-dependent cell growth (CellTiter-Glo, 72 h), Ba/F3 EGFR exon 20 FQEA Ins; conditions: read-out: BaF3 FQEA IC50
T5 construct: expressed in transfected cells; host or cells: Ba/F3 (murine pro-B cells), retroviral transduction, puromycin selection, IL3-independent pool
How it was run: as §5

[5] = target: T1, EGFR exon 20 NPG Ins D770_N771 (Ba/F3 cells); assay: Inhibitor activity on EGFR phosphorylation (pEGFR AlphaLISA, 2 h), Ba/F3 EGFR exon 20 NPG Ins
How it was run: (§6)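 IC50 values reflect inhibition of cellular EGFR phosphorylation, measured by AlphaLISA in lysates. Engineered Ba/F3 pools expressing mutant EGFR, selected with puromycin and cultured IL3-free, or CUTO14 cells, were exposed to compound for 2 hours.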

EGFR L858R (Ba/F3 cells) = target: T6, EGFR L858R (Ba/F3 cells) (Homo sapiens, UniProt P00533, L858R); assay: Inhibitor activity on EGFR-dependent cell growth (CellTiter-Glo, 72 h), Ba/F3 EGFR L858R; conditions: read-out: BaF3 L858R IC50
T6 construct: expressed in transfected cells; host or cells: Ba/F3 (murine pro-B cells), retroviral transduction, puromycin selection, IL3-independent pool
Excerpt: (§7) Example A. Inhibitor Activity on EGFR-Dependent Cell Growth
(§8) Cell lines are generated by transducing Ba/F3 cells with retroviruses containing vectors with EGFR WT, EGFR L858R, EGFR exon 19del, EGFR L858R/C797S, EGFR exon 20 NPG Ins D770_N771, EGFR exon 20 ASV Ins V769_D770, EGFR exon 20 SVD Ins D770_N771, or EGFR exon 20 FQEA Ins A763_V764 genes and a puromycin selection marker. Transduced cells are selected with puromycin for 7 days and are then be transferred into culture media without Interleukin 3 (IL3). EGFR WT cells are maintained with supplemental EGF. Surviving cells are confirmed to express EGFR by Western blot and maintained as a pool. The IC50 date were included in Table 6 and Table 7.
as §1
(§9) 1.2 Cells are diluted with culture medium to the desired density and 40 μL of cell suspension is added into each well of 384-well cell culture plate and the seeding density is 800 (FQEA, exon 19del), 600 (WT, NPG, L858R/C797S), or 400 (ASV, SVD, L858R) cells/well.
as §2, §3, §4
(§10) 2.3 Transfer 120 nL of diluted compound from compound source plate into the cell plate.
(§11) 2.4 After compound treatment for 72 hours, perform CTG detection for compound treatment plates as described in “Detection” section.
(§12) 3.1 Plates are removed from incubators and equilibrated at room temperature for 15 minutes.
(§13) 3.2 Thaw the CellTiter Glo reagents and allow to equilibrate to room temperature before the experiment.
(§14) 3.3 Add 40 μL of CellTiter-Glo reagent into each well (at 1:1 to culture medium). Then place the plates at room temperature for 30 min followed by reading on EnVision.
(§15) 4.1 Inhibition activity is calculated following the formula below:
(§16) % Inhibition=100×(LumHC−LumSample)/(LumHC−LumLC) • where HC is obtained from cells treated with 0.1% DMSO only; and LC is obtained from culture medium only.
(§17) 4.2 2. Calculate the IC50 by fitting the Curve using Xlfit (v5.3.1.3), equation 201.
(§18) Y=Bottom+(Top−Bottom)/(1+10^((Log IC50−X)*HillSlope))

[6] = target: EGFR exon 19del (Ba/F3 cells) (Homo sapiens, UniProt P00533); assay: Inhibitor activity on EGFR-dependent cell growth (CellTiter-Glo, 72 h), Ba/F3 EGFR exon 19del; conditions: Ba/F3 EGFR exon 19del cell growth, read-out: BaF3 Del19 IC50
Excerpt: as §7, §8, §1, §9, §2, §3, §4, §10, §11, §12, §13, §14, §15, §16, §17, §18

[7] = target: T3, EGFR exon 20 ASV Ins V769_D770 (Ba/F3 cells); assay: Inhibitor activity on EGFR phosphorylation (pEGFR AlphaLISA, 2 h), Ba/F3 EGFR exon 20 ASV Ins; conditions: EGFR phosphorylation, AlphaLISA, 2 hours; read-out: ASV IC50 (pEGFR)
How it was run: as §6

Chain of EGFR (CUTO14 cells) (P00533 with tags, fused parts or gaps DUP767-769): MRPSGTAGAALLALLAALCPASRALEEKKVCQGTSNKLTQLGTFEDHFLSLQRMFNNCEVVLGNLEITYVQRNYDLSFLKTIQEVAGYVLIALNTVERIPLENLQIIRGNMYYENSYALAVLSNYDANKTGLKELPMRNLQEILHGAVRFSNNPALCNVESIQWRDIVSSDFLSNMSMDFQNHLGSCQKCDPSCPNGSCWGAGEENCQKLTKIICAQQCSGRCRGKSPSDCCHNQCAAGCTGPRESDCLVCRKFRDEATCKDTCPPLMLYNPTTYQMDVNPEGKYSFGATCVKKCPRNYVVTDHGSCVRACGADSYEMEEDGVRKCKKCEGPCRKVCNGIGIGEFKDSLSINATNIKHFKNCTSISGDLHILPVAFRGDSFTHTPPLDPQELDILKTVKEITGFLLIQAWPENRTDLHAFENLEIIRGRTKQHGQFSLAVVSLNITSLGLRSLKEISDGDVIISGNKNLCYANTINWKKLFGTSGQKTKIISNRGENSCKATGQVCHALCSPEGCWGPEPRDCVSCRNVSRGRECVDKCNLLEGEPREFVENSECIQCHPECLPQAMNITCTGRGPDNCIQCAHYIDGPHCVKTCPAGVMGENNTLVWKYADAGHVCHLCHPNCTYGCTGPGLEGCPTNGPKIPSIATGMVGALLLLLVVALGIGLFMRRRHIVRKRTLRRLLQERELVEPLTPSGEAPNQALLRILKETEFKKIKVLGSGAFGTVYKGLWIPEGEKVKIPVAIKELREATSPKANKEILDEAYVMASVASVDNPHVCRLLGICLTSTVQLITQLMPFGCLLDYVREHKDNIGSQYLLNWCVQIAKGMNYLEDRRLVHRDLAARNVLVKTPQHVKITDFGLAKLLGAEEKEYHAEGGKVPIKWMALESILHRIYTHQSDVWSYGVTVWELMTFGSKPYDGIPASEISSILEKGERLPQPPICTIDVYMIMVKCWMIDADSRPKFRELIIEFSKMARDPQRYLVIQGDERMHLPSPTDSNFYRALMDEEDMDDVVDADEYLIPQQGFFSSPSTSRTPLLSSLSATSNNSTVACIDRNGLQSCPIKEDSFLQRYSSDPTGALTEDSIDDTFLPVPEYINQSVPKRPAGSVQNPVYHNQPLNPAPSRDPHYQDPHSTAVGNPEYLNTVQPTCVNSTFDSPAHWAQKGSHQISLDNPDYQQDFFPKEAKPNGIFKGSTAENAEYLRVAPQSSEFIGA

Row | Compound | IC50 (EGFR (CUTO14 cells)) | IC50 [1] | IC50 [2] | IC50 [3] | IC50 (EGFR WT (Ba/F3 cells)) | IC50 [4] | IC50 [5] | IC50 (EGFR L858R (Ba/F3 cells)) | IC50 [6] | IC50 [7]
1 | COc1c(Cl)cc(F)cc1Nc1c(-c2ccnc(C)n2)[nH]c2c1C(=O)NC[C@H]2C[C@@H]1COCCO1 [compound 652] | < 100 nM | 100 to 1000 nM | 100 to 1000 nM | 100 to 1000 nM | > 1000 nM | – | – | – | – | –
2 | COc1c(Cl)cccc1Nc1c(-c2ccncc2)[nH]c2c1C(=O)NC[C@H]2C[C@@H]1CN(C)CCO1 [Compound 645, (7R)-3-[(3-chloro-2-methoxyphenyl)amino]-7-{[(2R)-4-methylmorpholin-2-yl]methyl}-2-(pyridin-4-yl)-1H,5H,6H,7H-pyrrolo[3,2-c]pyridin-4-one] | < 100 nM | < 100 nM | < 100 nM | < 100 nM | > 1000 nM | – | – | – | – | –
3 | COc1c(Cl)cccc1Nc1c(-c2ccncc2F)[nH]c2c1C(=O)NCC2C[C@@H]1CO[C@@H](CN(C)C)CO1 (single isomer, unassigned) [Compound 562, (7R*)-3-[(3-chloro-2-methoxyphenyl)amino]-7-{[(2R,5S)-5-[(dimethylamino)methyl]-1,4-dioxan-2-yl]methyl}-2-(3-fluoropyridin-4-yl)-1H,5H,6H,7H-pyrrolo[3,2-c]pyridin-4-one] | < 100 nM | < 100 nM | < 100 nM | < 100 nM | 100 to 1000 nM | – | – | – | – | –
4 | C=CC(=O)N1CCC2(CC1)CNC(=O)c1c2[nH]c(-c2ccnc(C)n2)c1Nc1cccc(Cl)c1OC [compound 643] | < 100 nM | < 100 nM | < 100 nM | < 100 nM | < 100 nM | – | – | – | – | –
5 | COc1c(F)cccc1Nc1c(-c2ccncc2F)[nH]c2c1C(=O)NC[C@H]2C[C@@H]1CCO1 [Compound 422a, (7R)-3-[(3-fluoro-2-methoxyphenyl)amino]-2-(3-fluoropyridin-4-yl)-7-[(2R)-oxetan-2-ylmethyl]-1H,5H,6H,7H-pyrrolo[3,2-c]pyridin-4-one] | – | < 100 nM | < 100 nM | < 100 nM | 100 to 1000 nM | 100 to 1000 nM | < 100 nM | < 100 nM | < 100 nM | –
6 | COc1c(Cl)cccc1Nc1c(-c2ccnc(C)n2)[nH]c2c1C(=O)NC[C@H]2CC1COCCO1 (stereo in doubt) [Compound 573, (7R)-3-[(3-chloro-2-methoxyphenyl)amino]-7-[(2R)-1,4-dioxan-2-ylmethyl]-2-(2-methylpyrimidin-4-yl)-1H,5H,6H,7H-pyrrolo[3,2-c]pyridin-4-one] | – | < 100 nM | – | – | 100 to 1000 nM | – | < 100 nM | < 100 nM | < 100 nM | –
7 | COc1c(Cl)cccc1Nc1c(-c2ccnc(C)n2)[nH]c2c1C(=O)NC[C@@H]2C[C@@H]1COCCO1 [Compound 552, (7S)-3-[(3-chloro-2-methoxyphenyl)amino]-7-[(2R)-1,4-dioxan-2-ylmethyl]-2-(2-methylpyrimidin-4-yl)-1H,5H,6H,7H-pyrrolo[3,2-c]pyridin-4-one] | < 100 nM | < 100 nM | – | – | > 1000 nM | – | – | – | – | –
8 | COc1c(Cl)cccc1Nc1c(-c2ccnc3[nH]cnc23)[nH]c2c1C(=O)NCC2 [compound 290] | – | 100 to 1000 nM | < 100 nM | < 100 nM | 100 to 1000 nM | < 100 nM | < 100 nM | < 100 nM | < 100 nM | < 100 nM
9 | COc1c(Cl)cccc1Nc1c(-c2ccnc3ccc(OC4CC(F)(F)C4)nc23)[nH]c2c1C(=O)NCC2 [Compound 766, 3-[(3-chloro-2-methoxyphenyl)amino]-2-[6-(3,3-difluorocyclobutoxy)-1,5-naphthyridin-4-yl]-1H,5H,6H,7H-pyrrolo[3,2-c] pyridin-4-one] | – | < 100 nM | < 100 nM | < 100 nM | 100 to 1000 nM | < 100 nM | – | < 100 nM | < 100 nM | –
